PubChem BioAssay (NCI)
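Five compound concentrations were applied to cells in 96-well plates for 48 hours; endpoints were derived by simple linear interpolation of the resulting dose-response curve. Abbreviation: GI50, concentration required for 50% inhibition of growth. The concentration for full growth arrest is given as TGI.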

What follows are molecules tested on OVCAR-5 ovarian (assay: DTP human tumour cell line panel, 48 h).

| SMILES | GI50 [µM] | TGI [µM] |
| --- | --- | --- |
| C=CCn1c(C)nc2ccc(Nc3nc(Nc4ccc5nc(C)n(CC=C)c5c4)c4ccccc4n3)cc21 | 1.7 | 3.09 |
| COc1ccc2[nH]cc(C3(c4c[nH]c5ccc(OC)cc45)C(=O)Nc4ccc(F)cc43)c2c1 | 2.61 | 8.93 |
| CC(C)(C)c1ccc(O)c(C(O)c2ccncc2)c1 (configuration not stated) | – | > 100 |
| CC1CCC(C(C)C)C(OC(=O)NCn2cc(-c3ccccc3)nn2)C1 (configuration not stated) | – | > 100 |

What follows are molecules tested on MDA-MB-231 breast (assay: DTP human tumour cell line panel, 48 h).

| SMILES | TGI [µM] | GI50 [µM] |
| --- | --- | --- |
| CN(C)C1(N(C)C)Oc2c(c(=O)n(C)c(=O)n2C)C(c2ccccc2)C1(F)F (configuration not stated) | > 100 | – |
| C=CCn1c(C)nc2ccc(Nc3nc(Nc4ccc5nc(C)n(CC=C)c5c4)c4ccccc4n3)cc21 | 2.62 | 1.34 |
| COc1ccc2[nH]cc(C3(c4c[nH]c5ccc(OC)cc45)C(=O)Nc4ccc(F)cc43)c2c1 | 3.56 | 1.57 |
| Oc1cc2cccc[n+]2c2cc(Cl)ccc12 | – | 29.2 |
| CC(C)(C)c1ccc(O)c(C(O)c2ccncc2)c1 (configuration not stated) | > 100 | – |
| CC1CCC(C(C)C)C(OC(=O)NCn2cc(-c3ccccc3)nn2)C1 (configuration not stated) | > 100 | – |
| Cc1ccc(-n2c(N)c(C#N)c3[nH]nc(N)c3c2=O)cc1 | > 100 | – |

What follows are molecules tested on CCRF-CEM leukemia (assay: DTP human tumour cell line panel, 48 h).

| SMILES | TGI [µM] | GI50 [µM] |
| --- | --- | --- |
| CN(C)C1(N(C)C)Oc2c(c(=O)n(C)c(=O)n2C)C(c2ccccc2)C1(F)F (configuration not stated) | > 100 | – |
| COc1ccc2[nH]cc(C3(c4c[nH]c5ccc(OC)cc45)C(=O)Nc4ccc(F)cc43)c2c1 | 22.4 | 3.04 |
| Oc1cc2cccc[n+]2c2cc(Cl)ccc12 | – | 35.9 |
| CC(C)(C)c1ccc(O)c(C(O)c2ccncc2)c1 (configuration not stated) | > 100 | – |
| CC1CCC(C(C)C)C(OC(=O)NCn2cc(-c3ccccc3)nn2)C1 (configuration not stated) | > 100 | – |
| Cc1ccc(-n2c(N)c(C#N)c3[nH]nc(N)c3c2=O)cc1 | > 100 | – |

These molecules were tested on HCC-2998 colon (assay: DTP human tumour cell line panel, 48 h).

| SMILES | TGI [µM] | GI50 [µM] |
| --- | --- | --- |
| Cn1nc(C(=O)N2CC(CCl)c3c2cc(N)c2ccccc32)cc1NC(=O)Nc1cc(C(=O)N2CC(CCl)c3c2cc(N)c2ccccc32)nn1C (configuration not stated) | > 100 | – |
| CN(C)C1(N(C)C)Oc2c(c(=O)n(C)c(=O)n2C)C(c2ccccc2)C1(F)F (configuration not stated) | > 100 | – |
| C=CCn1c(C)nc2ccc(Nc3nc(Nc4ccc5nc(C)n(CC=C)c5c4)c4ccccc4n3)cc21 | 3.09 | 1.72 |
| COc1ccc2[nH]cc(C3(c4c[nH]c5ccc(OC)cc45)C(=O)Nc4ccc(F)cc43)c2c1 | 8.97 | 2.93 |
| Oc1cc2cccc[n+]2c2cc(Cl)ccc12 | – | 83.3 |
| CC(C)(C)c1ccc(O)c(C(O)c2ccncc2)c1 (configuration not stated) | > 100 | – |
| CC1CCC(C(C)C)C(OC(=O)NCn2cc(-c3ccccc3)nn2)C1 (configuration not stated) | > 100 | – |
| Cc1ccc(-n2c(N)c(C#N)c3[nH]nc(N)c3c2=O)cc1 | > 100 | – |

What follows are molecules tested on T-47D breast (assay: DTP human tumour cell line panel, 48 h).

| SMILES | TGI [µM] | GI50 [µM] |
| --- | --- | --- |
| CN(C)C1(N(C)C)Oc2c(c(=O)n(C)c(=O)n2C)C(c2ccccc2)C1(F)F (configuration not stated) | > 100 | – |
| COc1ccc2[nH]cc(C3(c4c[nH]c5ccc(OC)cc45)C(=O)Nc4ccc(F)cc43)c2c1 | 14.9 | 3.04 |
| CC(C)(C)c1ccc(O)c(C(O)c2ccncc2)c1 (configuration not stated) | > 100 | – |
| Cc1ccc(-n2c(N)c(C#N)c3[nH]nc(N)c3c2=O)cc1 | > 100 | – |

The molecules below were run on NCI-H522 lung (assay: DTP human tumour cell line panel, 48 h).

| SMILES | GI50 [µM] | TGI [µM] |
| --- | --- | --- |
| COc1ccc2[nH]cc(C3(c4c[nH]c5ccc(OC)cc45)C(=O)Nc4ccc(F)cc43)c2c1 | 1.81 | 3.77 |
| Oc1cc2cccc[n+]2c2cc(Cl)ccc12 | 86.3 | – |
| CC(C)(C)c1ccc(O)c(C(O)c2ccncc2)c1 (configuration not stated) | – | > 100 |
| CC1CCC(C(C)C)C(OC(=O)NCn2cc(-c3ccccc3)nn2)C1 (configuration not stated) | – | > 100 |

Each molecule was assayed on SK-MEL-2 melanoma (assay: DTP human tumour cell line panel, 48 h).

| SMILES | TGI [µM] | GI50 [µM] |
| --- | --- | --- |
| CN(C)C1(N(C)C)Oc2c(c(=O)n(C)c(=O)n2C)C(c2ccccc2)C1(F)F (configuration not stated) | > 100 | – |
| COc1ccc2[nH]cc(C3(c4c[nH]c5ccc(OC)cc45)C(=O)Nc4ccc(F)cc43)c2c1 | 5.02 | 2.34 |
| CC1CCC(C(C)C)C(OC(=O)NCn2cc(-c3ccccc3)nn2)C1 (configuration not stated) | > 100 | – |
| Cc1ccc(-n2c(N)c(C#N)c3[nH]nc(N)c3c2=O)cc1 | > 100 | – |

These molecules were tested on OVCAR-8 ovarian (assay: DTP human tumour cell line panel, 48 h).

| SMILES | GI50 [µM] | TGI [µM] |
| --- | --- | --- |
| COc1ccc2[nH]cc(C3(c4c[nH]c5ccc(OC)cc45)C(=O)Nc4ccc(F)cc43)c2c1 | 2.75 | 9.67 |
| Oc1cc2cccc[n+]2c2cc(Cl)ccc12 | 92.3 | – |
| CC(C)(C)c1ccc(O)c(C(O)c2ccncc2)c1 (configuration not stated) | – | > 100 |
| CC1CCC(C(C)C)C(OC(=O)NCn2cc(-c3ccccc3)nn2)C1 (configuration not stated) | – | > 100 |
| Cc1ccc(-n2c(N)c(C#N)c3[nH]nc(N)c3c2=O)cc1 | – | > 100 |

What follows are molecules tested on SK-MEL-5 melanoma (assay: DTP human tumour cell line panel, 48 h).

| SMILES | TGI [µM] | GI50 [µM] |
| --- | --- | --- |
| CN(C)C1(N(C)C)Oc2c(c(=O)n(C)c(=O)n2C)C(c2ccccc2)C1(F)F (configuration not stated) | > 100 | – |
| COc1ccc2[nH]cc(C3(c4c[nH]c5ccc(OC)cc45)C(=O)Nc4ccc(F)cc43)c2c1 | 4.77 | 1.98 |
| CC(C)(C)c1ccc(O)c(C(O)c2ccncc2)c1 (configuration not stated) | 66.7 | – |
| CC1CCC(C(C)C)C(OC(=O)NCn2cc(-c3ccccc3)nn2)C1 (configuration not stated) | > 100 | – |
| Cc1ccc(-n2c(N)c(C#N)c3[nH]nc(N)c3c2=O)cc1 | > 100 | – |

What follows are molecules tested on MALME-3M melanoma (assay: DTP human tumour cell line panel, 48 h).

| SMILES | GI50 [µM] | TGI [µM] |
| --- | --- | --- |
| COc1ccc2[nH]cc(C3(c4c[nH]c5ccc(OC)cc45)C(=O)Nc4ccc(F)cc43)c2c1 | 2.44 | 22.4 |
| CC(C)(C)c1ccc(O)c(C(O)c2ccncc2)c1 (configuration not stated) | – | > 100 |
| CC1CCC(C(C)C)C(OC(=O)NCn2cc(-c3ccccc3)nn2)C1 (configuration not stated) | – | > 100 |

These molecules were tested on U251 CNS (assay: DTP human tumour cell line panel, 48 h).

| SMILES | TGI [µM] | GI50 [µM] |
| --- | --- | --- |
| CN(C)C1(N(C)C)Oc2c(c(=O)n(C)c(=O)n2C)C(c2ccccc2)C1(F)F (configuration not stated) | > 100 | – |
| COc1ccc2[nH]cc(C3(c4c[nH]c5ccc(OC)cc45)C(=O)Nc4ccc(F)cc43)c2c1 | 8.83 | 2.58 |
| CC1CCC(C(C)C)C(OC(=O)NCn2cc(-c3ccccc3)nn2)C1 (configuration not stated) | > 100 | – |
| Cc1ccc(-n2c(N)c(C#N)c3[nH]nc(N)c3c2=O)cc1 | > 100 | – |

Each molecule was assayed on SK-OV-3 ovarian (assay: DTP human tumour cell line panel, 48 h).

| SMILES | TGI [µM] | GI50 [µM] |
| --- | --- | --- |
| Cn1nc(C(=O)N2CC(CCl)c3c2cc(N)c2ccccc32)cc1NC(=O)Nc1cc(C(=O)N2CC(CCl)c3c2cc(N)c2ccccc32)nn1C (configuration not stated) | > 100 | – |
| CN(C)C1(N(C)C)Oc2c(c(=O)n(C)c(=O)n2C)C(c2ccccc2)C1(F)F (configuration not stated) | > 100 | – |
| C=CCn1c(C)nc2ccc(Nc3nc(Nc4ccc5nc(C)n(CC=C)c5c4)c4ccccc4n3)cc21 | 3.09 | 1.72 |
| COc1ccc2[nH]cc(C3(c4c[nH]c5ccc(OC)cc45)C(=O)Nc4ccc(F)cc43)c2c1 | 13.5 | 3.59 |
| Cc1ccc(-n2c(N)c(C#N)c3[nH]nc(N)c3c2=O)cc1 | > 100 | – |

What follows are molecules tested on SW-620 colon (assay: DTP human tumour cell line panel, 48 h).

| SMILES | TGI [µM] | GI50 [µM] |
| --- | --- | --- |
| Cn1nc(C(=O)N2CC(CCl)c3c2cc(N)c2ccccc32)cc1NC(=O)Nc1cc(C(=O)N2CC(CCl)c3c2cc(N)c2ccccc32)nn1C (configuration not stated) | > 100 | – |
| CN(C)C1(N(C)C)Oc2c(c(=O)n(C)c(=O)n2C)C(c2ccccc2)C1(F)F (configuration not stated) | > 100 | – |
| COc1ccc2[nH]cc(C3(c4c[nH]c5ccc(OC)cc45)C(=O)Nc4ccc(F)cc43)c2c1 | 11.5 | 3.04 |
| CC(C)(C)c1ccc(O)c(C(O)c2ccncc2)c1 (configuration not stated) | > 100 | – |
| CC1CCC(C(C)C)C(OC(=O)NCn2cc(-c3ccccc3)nn2)C1 (configuration not stated) | > 100 | – |
| Cc1ccc(-n2c(N)c(C#N)c3[nH]nc(N)c3c2=O)cc1 | > 100 | – |

Each molecule was assayed on SK-MEL-28 melanoma (assay: DTP human tumour cell line panel, 48 h).

| SMILES | TGI [µM] | GI50 [µM] |
| --- | --- | --- |
| CN(C)C1(N(C)C)Oc2c(c(=O)n(C)c(=O)n2C)C(c2ccccc2)C1(F)F (configuration not stated) | > 100 | – |
| COc1ccc2[nH]cc(C3(c4c[nH]c5ccc(OC)cc45)C(=O)Nc4ccc(F)cc43)c2c1 | 6.75 | 2.29 |
| CC(C)(C)c1ccc(O)c(C(O)c2ccncc2)c1 (configuration not stated) | > 100 | – |
| CC1CCC(C(C)C)C(OC(=O)NCn2cc(-c3ccccc3)nn2)C1 (configuration not stated) | > 100 | – |
| Cc1ccc(-n2c(N)c(C#N)c3[nH]nc(N)c3c2=O)cc1 | > 100 | – |

The molecules below were run on A549 NSCLC (assay: DTP human tumour cell line panel, 48 h).

| SMILES | TGI [µM] |
| --- | --- |
| Cn1nc(C(=O)N2CC(CCl)c3c2cc(N)c2ccccc32)cc1NC(=O)Nc1cc(C(=O)N2CC(CCl)c3c2cc(N)c2ccccc32)nn1C (configuration not stated) | > 100 |
| CN(C)C1(N(C)C)Oc2c(c(=O)n(C)c(=O)n2C)C(c2ccccc2)C1(F)F (configuration not stated) | > 100 |
| CC(C)(C)c1ccc(O)c(C(O)c2ccncc2)c1 (configuration not stated) | > 100 |
| CC1CCC(C(C)C)C(OC(=O)NCn2cc(-c3ccccc3)nn2)C1 (configuration not stated) | > 100 |
